Source: patent publication US11225481B2 (Centre national de la recherche scientifique, priority 2015, dated 2022)
Where two headings read alike, the source gives them in different places.

Experiments:
[1] = target: T1, BRD4(BD1) (Homo sapiens, UniProt O60885); experiment: HTRF assay, disruption of bromodomain/histone peptide interaction; format: binding; conditions: for LE (Ligand Efficiency): LE = 1.4(−log(IC50)/N), BRD4(BD1)
T1 construct: a BRD4(BD1) synthetic gene that includes a TEV cleavage site was purchased from LifeTechnology; made in house
Method: (§1) HTRF assays were performed in white 384 Well Small Volume™ HiBase Polystyrene Microplates (Greiner) with a total working volume of 20 μL. Compounds were dispensed, with 200 nL per well (1% final DMSO), from a concentration stock of 1 mM in 100% DMSO and with serial DMSO dilutions, using a Mosquito Crystal pipetting robot platform (TTP labtech). The IC50 measurements were performed in triplicates (Table 2 and 3). All HTRF reagents were purchased from CisBio Bioassays and reconstituted according to the supplier protocols. For each assay 14.7 μL of mix 1 (protein+peptide) is added in the assay wells, containing previously dispensed inhibitors, according to the final concentration and buffer described in Table 4, using a Biomek NX MC pipetting robot (Beckman). Then, 5.1 μL of mix 2 (donnor+acceptor) is added. HTRF signals were measured, after a final incubation (overnight at room temperature), using a PHERAstar FS (BMG Labtech) with an excitation filter at 337 nm and fluorescence wavelength measurement at 620 and 665 nm, an integration delay of 60 μs and an integration time of 500 μs. Results were analyzed with a two-wavelengths signal ratio: [intensity (665 nm)/intensity (620 nm)]*10^4. Percentage of inhibition was calculated using the following equation: % inhibition=[(compound signal)−(min signal)]/[(max signal)−(min signal)]*100, where ‘max signal’ is the signal ratio with the compound vehicle alone (DMSO) and ‘min signal’ the signal ratio without peptide.
(§2) For Isothermal Titration Calorimetry (ITC) and crystallogenesis, BRD4(BD1) was produced and purified using a histidine tag affinity chromatography as described by Filipakopoulos et al.9 For these experiments, a pNIC28-BSA4 expression vector containing BRD4(BD1) and a Tobacco Etch Virus (TEV) protease cleavage site have kindly been provided by Stefan Knapp laboratory from the SGC at the University of Oxford. After size exclusion chromatography, the fractions presenting pure BRD4(BD1) after TEV cleavage of the histidine tag were pooled and concentrated to 25 mg/mL for crystallogenesis. For ITC assays, the protein was concentrated up to at 6 mg/mL and the DTT was removed using a buffer exchange column (PD10 from GE healthcare) equilibrated with 10 mM HEPES pH=7.5, 150 mM NaCl. For Homogeneous Time Resolved Fluorimetry (HTRF) experiments, a BRD4(BD1) synthetic gene that includes a TEV cleavage site was purchased from LifeTechnology in a pDONR transport vector before cloning into a pDESTTM15 expression vector for GST affinity purification. Protein production and purification was carried out using similar protocols and buffers as used for the His-BRD4(BD1) system. Purification was carried on GST affinity resin (Thermo Scientific) and reduced glutathione was used for protein release. GST-BRD4(BD1) was further purified by size exclusion chromatography on a Superdex 16/60 Hiload column (GE Healthcare) using 20 mM TRIS pH=8.0, 150 mM NaCl Buffer.

[2] = target: T2, BRD3(BD2) (Homo sapiens, UniProt Q15059); experiment: HTRF bromodomain selectivity profile; format: binding; conditions: Table 3 selectivity profile
T2 construct: purchased BPS Bioscience
T2 sequence (Q15059 306-415 limits assumed): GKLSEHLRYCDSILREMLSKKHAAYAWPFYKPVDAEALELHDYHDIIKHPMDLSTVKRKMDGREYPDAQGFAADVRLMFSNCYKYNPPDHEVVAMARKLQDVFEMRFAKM
Method: as §1, with “Compounds” for “HTRF assays were performed in white 384 Well Small Volume™ HiBase Polystyrene Microplates (Greiner) with a total working volume of 20 μL. Compounds”, “The IC50 measurements were performed in triplicates (Table 2 and 3).” left out, “[intensity (665 nm)/intensity (620 nm)]*10^4.” left out, “peptide. For IC50 measurements, values were normalized and fitted with Prism (GraphPad software) using the following equation: […] Selectivity profiles of bromodomain inhibitors were performed as described in HTRF screen section. […] HTRF detection reagents (EPIgeneous™ Binding Domain kits) were purchased from Cisbio Bioassays and used according to supplier's protocol. GST tagged bromodomain proteins were purchased from BPS Bioscience and histone peptide from Anaspec. [table]” for “peptide.”

[3] = target: T3, BRD3(BD1) (Homo sapiens, UniProt Q15059); experiment: HTRF bromodomain selectivity profile; format: binding; conditions: Table 3 selectivity profile
T3 construct: purchased BPS Bioscience
T3 sequence (Q15059 34-140 limits assumed): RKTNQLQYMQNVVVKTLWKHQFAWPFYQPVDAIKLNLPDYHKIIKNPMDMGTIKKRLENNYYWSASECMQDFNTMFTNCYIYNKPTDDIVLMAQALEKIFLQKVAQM
Method: as §1, with “Compounds” for “HTRF assays were performed in white 384 Well Small Volume™ HiBase Polystyrene Microplates (Greiner) with a total working volume of 20 μL. Compounds”, “The IC50 measurements were performed in triplicates (Table 2 and 3).” left out, “[intensity (665 nm)/intensity (620 nm)]*10^4.” left out, “peptide. For IC50 measurements, values were normalized and fitted with Prism (GraphPad software) using the following equation: […] Selectivity profiles of bromodomain inhibitors were performed as described in HTRF screen section. […] HTRF detection reagents (EPIgeneous™ Binding Domain kits) were purchased from Cisbio Bioassays and used according to supplier's protocol. GST tagged bromodomain proteins were purchased from BPS Bioscience and histone peptide from Anaspec. [table]” for “peptide.”

[4] = target: T4, ATAD2 (Homo sapiens, UniProt Q6PL18); experiment: HTRF bromodomain selectivity profile, non-BET control; format: binding; conditions: non-BET family member bromodomain control
T4 construct: GST tagged bromodomain proteins were purchased from BPS Bioscience; purchased BPS Bioscience
T4 sequence (Q6PL18 980-1092 limits assumed): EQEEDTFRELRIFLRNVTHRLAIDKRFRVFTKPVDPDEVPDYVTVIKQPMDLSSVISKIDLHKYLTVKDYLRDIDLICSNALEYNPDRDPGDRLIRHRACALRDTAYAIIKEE
Method: as §1
(§3) Selectivity profiles of bromodomain inhibitors were performed as described in HTRF screen section. […] HTRF detection reagents (EPIgeneous™ Binding Domain kits) were purchased from Cisbio Bioassays and used according to supplier's protocol. GST tagged bromodomain proteins were purchased from BPS Bioscience and histone peptide from Anaspec.

[5] = target: T5, BRDT(BD1) (Homo sapiens, UniProt Q58F21); experiment: HTRF bromodomain selectivity profile; format: binding; conditions: Table 3 selectivity profile
T5 construct: purchased BPS Bioscience
Method: as §1, §3

[6] = target: T6, BRD4(BD2) (Homo sapiens, UniProt O60885); experiment: HTRF bromodomain selectivity profile; format: binding; conditions: Table 3 selectivity profile
T6 construct: purchased BPS Bioscience
Method: as §1, §3

[7] = target: T7, BRD2(BD1) (Homo sapiens, UniProt P25440); experiment: HTRF bromodomain selectivity profile; format: binding; conditions: Table 3 selectivity profile
T7 construct: purchased BPS Bioscience
T7 sequence (P25440 74-180 limits assumed): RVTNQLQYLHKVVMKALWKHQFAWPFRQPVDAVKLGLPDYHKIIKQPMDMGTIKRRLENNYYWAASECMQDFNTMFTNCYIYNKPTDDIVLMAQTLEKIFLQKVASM
Method: as §1, §3

[8] = target: T8, BRD2(BD2) (Homo sapiens, UniProt P25440); experiment: HTRF bromodomain selectivity profile; format: binding; conditions: Table 3 selectivity profile
T8 construct: purchased BPS Bioscience
T8 sequence (P25440 344-453 limits assumed): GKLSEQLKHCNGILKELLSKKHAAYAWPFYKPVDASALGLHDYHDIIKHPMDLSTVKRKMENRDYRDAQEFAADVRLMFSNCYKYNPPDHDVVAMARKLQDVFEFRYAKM
Method: as §1, §3

[9] = system: BET bromodomains; experiment: Selectivity profile across BET bromodomains (HTRF); format: binding; conditions: in words
Method: as §3

[10] = system: BD2 domain of BRD2 and BRD3; conditions: cited from earlier work
[11] = system: acute leukemia; conditions: patients, phase I acute leukemia study; cited from earlier work
[12] = target: T1, BRD4(BD1); experiment: Isothermal Titration Calorimetry; format: binding
Source text: as §2
ITC was used to evaluate the thermodynamics parameters of the binding between BRD4(BD1) and the selected compounds, using ITC conditions previously described by Filippakopoulos et al.8 Purified BRD4(BD1) was extensively dialyzed in the ITC buffer containing 10 mM Hepes pH=7.5 and 150 mM NaCl. Compounds were diluted directly in the last protein dialysate prior to experiments. Titrations were carried out on a MicroCal ITC200 microcalorimeter (GE Healthcare, Piscataway, N.J.). Each experiment was designed using a titrant concentration (protein in the syringe) set 10 to 15 times the analyte concentration (compound in the cell generally between 10 and 35 μM) and using 13 injections at 35° C. A first small injection (generally 0.2 μL) was included in the titration protocol in order to remove air bubbles trapped in the syringe prior titration. Raw data were scaled after setting the zero to the titration saturation heat value. Integrated raw ITC data were fitted to a one site non-linear least squares fit model using the MicroCal Origin plugin as implemented in Origin 7 (Origin Lab). Finally, ΔG and TΔS values were calculated from the fitted ΔH and KA values using the equations ΔG=−R.T. ln KA and ΔG=ΔH−TΔS.

[13] = HTRF, mean ± SD of three experiments, Table 2, read-out: IC50 μM, effect on BRD4(BD1) activity
[14] = HTRF, Table 1′, TABLE 2, read-out: BRD4(BD1) IC50
[15] = Table 3 selectivity profile, mean ± SD of three experiments, read-out: IC50 (μM) BRD4(BD1)

SMILES | IC50 [1, 13] [µM] | IC50 [2] [µM] | IC50 [3] [µM] | IC50 [5] [µM] | IC50 [6] [µM] | IC50 [7] [µM] | IC50 [8] [µM] | fold decrease in potency as compared to 7a ([1]; HTRF IC50 BRD4(BD1)) [fold] | IC50 [4] [µM] | IC50 [1, 14] [µM] | LE (Ligand Efficiency) [1] | IC50 [1, 15] [µM] | selectivity profile among BET bromodomains [9] | bromodomain binding preference [10] | clinical response [11] | enthalpy change ([12]; ITC, BRD4(BD1)) [kcal/mol] | Kd ([12]; Isothermal Titration Calorimetry) [µM] | fold increased potency (7a vs 6a) ([1]; HTRF IC50 BRD4(BD1)) [fold]
CCCCn1c(=O)[nH]c(=O)c2c1ncn2CC [Compound 6a, 3-Butyl-7-ethylxanthine] | 13 | 5.8 ± 0.2 | 4.8 ± 0.3 | 7.9 ± 0.4 | 8.1 ± 0.3 | 18.8 ± 0.7 | 6.6 ± 0.3 |  | > 100 | 13 ± 0.3 | 0.40 | 13 ± 0.3 | pan-BET inhibition profile |  |  |  |  | 
COc1cc(OC)c2c(=O)[nH]c(-c3cc(C)c(OCCO)c(C)c3)nc2c1 [RVX-208, 2-[4-(2-hydroxyethoxy)-3,5-dimethylphenyl]-5,7-dimethoxy-4(3H)-quinazolinone] |  |  |  |  |  |  |  |  |  |  |  |  |  | binds preferentially to the BD2 domain of BRD2 and BRD3 |  |  |  | 
Cn1cnc2c1c(=O)[nH]c(=O)n2Cc1ccc(Cl)cc1 [Compound 4b] | 9 | 4 | 14 | 27 | 5 | > 100 | 7 |  |  |  |  |  |  |  |  |  |  | 
CCn1c(CSc2n[nH]c(N)n2)nc2c1c(=O)[nH]c(=O)n2Cc1ccc(Cl)cc1 [Compound 22a, 8-(5-Amino-1H-[1,2,4]triazol-3-ylsulfanylmethyl)-3-(4-chlorobenzyl)-7-ethyl-3,7-dihydro-purine-2,6-dione] | 26.4 |  | 31.7 ± 1.1 |  |  | 30 ± 0.9 |  | 10 |  | 26.4 | 0.17 | 26.4 ± 0.7 | shift of selectivity towards BET-BD1 domains |  |  |  |  | 
Cc1sc2c(c1C)C(c1ccc(Cl)cc1)=N[C@@H](CC(=O)Nc1ccc(O)cc1)c1nnc(C)n1-2 [OTX015, (6S)-4-(4-chlorophenyl)-N-(4-hydroxyphenyl)-2,3,9-trimethyl-6H-thieno[3,2-f][1,2,4]triazolo[4,3-a][1,4]diazepine-6-acetamide] |  |  |  |  |  |  |  |  |  |  |  |  |  |  | induced remissions, including complete remission in two patients with refractory disease |  |  | 
CCn1cnc2c1c(=O)[nH]c(=O)n2Cc1ccc(Cl)cc1 [Compound 7a] | 2.6 | 1.8 ± 0.2 | 1.8 ± 1.1 | 2.3 ± 0.2 | 1.9 ± 0.1 | 4.7 ± 0.1 | 1.6 ± 0.2 |  | > 100 | 2.6 | 0.37 | 2.6 ± 0.1 | pan-BET inhibition profile |  |  | -6.3 | 1.8 | 2

Further lines, with some results ahead:

IC50 [1, 13] [µM] | IC50 [2] [µM] | IC50 [3] [µM] | IC50 [5] [µM] | IC50 [6] [µM] | IC50 [7] [µM] | IC50 [8] [µM] | fold decrease in potency as compared to 7a ([1]; HTRF IC50 BRD4(BD1)) [fold] | SMILES | IC50 [4] [µM] | IC50 [1, 14] [µM] | LE (Ligand Efficiency) [1] | IC50 [1, 15] [µM] | selectivity profile among BET bromodomains [9] | bromodomain binding preference [10] | clinical response [11] | enthalpy change ([12]; ITC, BRD4(BD1)) [kcal/mol] | Kd ([12]; Isothermal Titration Calorimetry) [µM] | fold increased potency (7a vs 6a) ([1]; HTRF IC50 BRD4(BD1)) [fold]
7.9 | 2.1 ± 0.5 | 43.5 ± 7.1 | 42.5 ± 3.9 | > 100 | 31.9 ± 0.5 | 9.5 ± 0.5 |  | CCc1cc(CC)n2nc(SCc3nc4c(c(=O)[nH]c(=O)n4Cc4ccc(Cl)cc4)n3CC)nc2n1 [Compound 26a] | 56.4 ± 7.9 |  |  |  |  |  |  |  |  | 
12.6 | 23.9 ± 1.4 | 40.7 ± 2.2 | 65.3 ± 8.1 | > 100 | 30.1 ± 1.3 | > 100 |  | CCn1c(CSc2nc3nc(C)cc(C)n3n2)nc2c1c(=O)[nH]c(=O)n2Cc1ccc(Cl)cc1 [Compound 25a] | > 100 |  |  |  |  |  |  |  |  | 
